Measured values: patent publication US9127044B2, “Cyclic depsipeptides” (NOVARTIS AG, priority 2007, dated 2015)
Read-outs that look alike come from different tables or passages of the source. Where a SMILES comes first, the peptide text is derived from it. Bridges are numbered along the chain shown (N, C = ends). [ ]: non-standard residue; d: D form. The star is where a group is joined. ξ: configuration not given here. NMeY = CN[C@@H](Cc1ccc(O)cc1)C(=O)O; Butanoyl(2ξ-Me) = CCC(C)C(=O)*; Ile(3ξ) = CCC(C)[C@H](N)C(=O)O; Isovaleryl = CC(C)CC(=O)*

What was measured:
[1] = molecular target: T1, Human neutrophil elastase (Homo sapiens, UniProt P08246); experiment: HNE inhibitory activity in vitro (fluorescence-quenched substrate); format: biochemical
T1 construct: purchased Elastin Products Company, Inc. (EPC, Owensville, USA) SE563
T1 sequence (P08246 30-267): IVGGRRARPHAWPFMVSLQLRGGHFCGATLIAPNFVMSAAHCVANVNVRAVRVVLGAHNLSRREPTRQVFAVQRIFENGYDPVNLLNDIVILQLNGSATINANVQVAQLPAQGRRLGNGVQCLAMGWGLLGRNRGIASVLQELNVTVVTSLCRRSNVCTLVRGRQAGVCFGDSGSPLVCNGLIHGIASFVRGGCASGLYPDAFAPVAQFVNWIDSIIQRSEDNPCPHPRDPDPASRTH
Protocol: Human neutrophil elastase (cat. no. SE563) is purchased from Elastin Products Company, Inc. (EPC, Owensville, USA). The dry powder (purity >95% stated by the supplier) was dissolved in 20 mM sodium acetate buffer, pH 5.0, 50% (v/v) glycerol, and frozen at −80° C. in aliquots.
The fluorescence-quenched substrate (DABCYL-Ser-Glu-Val^Asn-Leu-Asp-Ala-Glu-Phe-EDANS, where ^ indicates the scissile bond, identified by MS analysis) was purchased from Bachem AG (Bubendorf, Switzerland), and kept as a 5 mM stock solution in DMSO at −20° C. All other chemicals were of analytical grade.
Enzymatic reactions were conducted in 100 mM Tris/HCl buffer at pH 7.5, containing 500 mM NaCl, and 0.05% (w/v) CHAPS.
All protein and peptide containing solutions are handled in siliconized tubes (Life Systems Design, Merenschwand, Switzerland).
(§1) The compound solutions as well as the enzyme and the substrate solutions are transferred to the 384-well plates (black Cliniplate; cat. no. 95040020 Labsystems Oy, Finland) by means of a CyBi-Well 96-channel pipettor (CyBio AG, Jena, Germany).
(§2) For fluorescence intensity (FI) measurements an Ultra Evolution reader (TECAN, Maennedorf, Switzerland) is used. The instrument is equipped with a combination of a 350 nm (20 nm bandwidth) and a 500 nm (25 nm bandwidth) bandpass filter for fluorescence excitation and emission acquisition, respectively. To increase the signal:background ratio, an appropriate dichroic mirror is employed. The optical filters and the dichroic mirror are purchased from TECAN. The fluorophores in each well are excited by three flashes per measurement.

[2] = test system: Crl:NMRI mice; experiment: Anti-inflammatory activity in murine model of allergic contact dermatitis (ACD), oxazolone; format: in vivo
Protocol: Method: Crl:NMRI mice were sensitized on the shaved abdomen with 50 μl of 2% oxazolone on day 1 and challenged with 10 μl oxazolone on the inner surface of the right ear on day 8. The unchallenged left ears served as normal controls and dermatitis was evaluated from the difference in auricular weight (taken as a measure of inflammatory swelling) on day 9. The animals were treated topically with 10 μl test compound or the solvent only 30 min after the challenge. The efficacy of the treatment was calculated as the percentage inhibition of inflammatory auricular swelling relative to animals treated with the vehicle alone.

[3] = molecular target: human kallikrein 7 (Homo sapiens, UniProt P49862); experiment: Kallikrein-7 inhibitory activity in vitro (fluorescence-quenched substrate); format: biochemical
human kallikrein 7, sequence (P49862 30-253): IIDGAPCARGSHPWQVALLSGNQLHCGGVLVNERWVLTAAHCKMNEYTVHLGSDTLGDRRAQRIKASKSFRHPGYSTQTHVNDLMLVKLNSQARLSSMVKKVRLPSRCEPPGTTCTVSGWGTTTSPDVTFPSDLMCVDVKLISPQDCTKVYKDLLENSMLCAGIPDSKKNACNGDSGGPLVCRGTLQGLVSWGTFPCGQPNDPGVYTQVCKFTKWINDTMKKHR
Protocol: (§3) IC50 for human kallikrein can be measured using the fluorescence-quenched substrate Ac-Glu-Asp(EDANS)-Lys-Pro-Ale-Leu-Phe^Arg-Leu-Gly-Lys(DABCYL)-Glu-NH2 (where ^ indicates the scissile bond, identified by MS analysis) which can be purchased from Biosyntan (Berlin, Germany). Enzymatic reactions are conducted in 50 mM sodium citrate buffer at pH 5.6 containing 150 mM NaCl and 0.05% (w/v) CHAPS. For the determination of IC50 values the assay is performed at room temperature in 384-well plates. All final assay volumes are 30 μl. Test compounds are dissolved in 90% (v/v) DMSO/water and diluted in water (containing 0.05% (w/v) CHAPS) to 3-times the desired assay concentration. The 11 final compound concentrations are: 0.3 nM, 1 nM, 3 nM, 10 nM, 30 nM, 100 nM, 300 nM, 1 μM, 3 μM, 10 μM and 30 μM. For each assay, 10 μl water/CHAPS (±test compound) are added per well, followed by 10 μl protease solution (diluted with 1.5× assay buffer). The protease concentration in final assay solution is 0.2 nM (according to the enzyme concentrations determined by the Bradford method). After 1 hour of incubation at room temperature, the reaction is started by addition of 10 μl substrate solution (substrate dissolved in 1.5× assay buffer, final concentration is 2 μM). […] The IC50 value is calculated from the plot of percentage of inhibition vs. inhibitor concentration using non-linear regression analysis software (XLfit, Vers. 4.0; ID Business Solution Ltd., Guildford, Surrey, UK).
The fluorescence-quenched substrate Ac-Glu-Asp(EDANS)-Lys-Pro-Ale-Leu-Phe^Arg-Leu-Gly-Lys(DABCYL)-Glu-NH2 (where ^ indicates the scissile bond, identified by MS analysis) is purchased from Biosyntan (Berlin, Germany) and kept as a 5 mM stock solution in DMSO at −20° C. All other chemicals are of analytical grade.
Enzymatic reactions are conducted in 50 mM sodium citrate buffer at pH 5.6 containing 150 mM NaCl and 0.05% (w/v) CHAPS.
as §1, with “All protein and peptide containing solutions are handled in siliconized tubes (Life Systems Design, Merenschwand, Switzerland). The” for “The”
as §2
as §3, with “For” for “IC50 for human kallikrein can be measured using the fluorescence-quenched substrate Ac-Glu-Asp(EDANS)-Lys-Pro-Ale-Leu-Phe^Arg-Leu-Gly-Lys(DABCYL)-Glu-NH2 (where ^ indicates the scissile bond, identified by MS analysis) which can be purchased from Biosyntan (Berlin, Germany). Enzymatic reactions are conducted in 50 mM sodium citrate buffer at pH 5.6 containing 150 mM NaCl and 0.05% (w/v) CHAPS. For”, “volumes were” for “volumes are”, “concentration was” for “concentration is”

[4] = test system: human chymotrypsin; experiment: Inhibition of human chymotrypsin; format: biochemical
[5] = Table 14, concentration of test compound 10 mM
[6] = Table 14, concentration of test compound 30 mM
[7] = Table 11, read-out: human neutrophile elastase IC 50
[8] = Table 11, read-out: hKallikrein7 IC 50

SMILES	IC50 [1] [nM]	% Inhibition of inflammatory swelling [2, 5] [%]	% Inhibition of inflammatory swelling [2, 6] [%]	IC50 ([3]; hKallikrein7 IC 50, Table 11) [nM]	further results
CCC(C)C1NC(=O)C(Cc2ccc(O)cc2)N(C)C(=O)C(C(C)CC)N2C(=O)C(CCC2OCc2ccccc2)NC(=O)C(CC(C)C)NC(=O)C(NC(=O)C(CCC(N)=O)NC(=O)C(C)C)C(C)OC1=O (stereo not shown) [example 9]	3	42	38	2	
CCOC1CCC2NC(=O)C(CC(C)C)NC(=O)C(NC(=O)C(CCC(N)=O)NC(=O)C(C)C)C(C)OC(=O)C(C(C)CC)NC(=O)C(Cc3ccc(O)cc3)N(C)C(=O)C(C(C)CC)N1C2=O (stereo not shown) [example 10]	9	22	25	3.5	
CCC(C)C1NC(=O)C(Cc2ccc(OCc3cc(C)n(C)n3)cc2)N(C)C(=O)C(C(C)CC)N2C(=O)C(CCC2O)NC(=O)C(CC(C)C)NC(=O)C(NC(=O)C(CCC(N)=O)NC(=O)C(C)C)C(C)OC1=O (stereo not shown) [example 43]		42	55		IC50 [1, 7]: 1 nM; IC50 [3, 8]: 0.2 nM
CC(C)CC(=O)N[C@@H](CCC(N)=O)C(=O)N[C@@H]1C(=O)N[C@@H](CC(C)C)C(=O)NC2CC[C@H](O)N(C2=O)[C@@H](Cc2ccccc2)C(=O)N(C)[C@@H](Cc2ccc(O)cc2)C(=O)N[C@@H](C(C)C)C(=O)O[C@@H]1C (stereo partly shown) [formula VIII]					IC50 ([1]; read-out: IC50 human neutrophile elastase): ~2.5 nM; IC50 [4]: ~4 nM; IC50 ([3]; read-out: IC50 for human kallikrein 7): < 3 nM
CCC(C)[C@@H]1NC(=O)[C@H](Cc2ccc(O)cc2)N(C)C(=O)[C@H](C(C)CC)N2C(=O)C(CC[C@@H]2O)NC(=O)[C@H](CC(C)C)NC(=O)[C@@H](NC(=O)[C@H](CCC(N)=O)NC(=O)c2ccccc2)[C@@H](C)OC1=O (stereo partly shown) [formula XIII]	30				IC50 [3]: 0.7 nM
CCC(C)[C@@H]1NC(=O)[C@H](Cc2ccc(O)cc2)N(C)C(=O)[C@H](C(C)CC)N2C(=O)C(CC[C@@H]2O)NC(=O)[C@H](CC(C)C)NC(=O)[C@@H](NC(=O)[C@H](CCC(N)=O)NC(C)=O)[C@@H](C)OC1=O (stereo partly shown) [formula XII]	50			4	
CCC(C)C(=O)N[C@@H](CCC(N)=O)C(=O)N[C@@H]1C(=O)N[C@@H](CC(C)C)C(=O)N2CCC[C@H]2C(=O)N[C@@H](C(C)CC)C(=O)N(C)[C@@H](Cc2ccc(O)cc2)C(=O)N[C@@H](C(C)CC)C(=O)O[C@@H]1C (stereo partly shown) [formula XIV] ({Butanoyl(2ξ-Me)}-QTLP[Ile(3ξ)][NMeY][Ile(3ξ)]; ester 2-C)	2700			200	
CCC(C)[C@@H]1NC(=O)[C@H](Cc2ccc(O)cc2)N(C)C(=O)[C@H](Cc2ccccc2)N2C(=O)C(CC[C@@H]2O)NC(=O)[C@H](CC(C)C)NC(=O)[C@@H](NC(=O)[C@H](CCCNC(N)=O)NC(=O)C(C)C)[C@@H](C)OC1=O (stereo partly shown) [formula XV]	80			4	
CC(C)CC(=O)N[C@@H](CCC(N)=O)C(=O)N[C@@H]1C(=O)N[C@@H](CC(C)C)C(=O)N2CCC[C@@H]2C(=O)N[C@@H](Cc2ccccc2)C(=O)N[C@@H](Cc2ccc(O)cc2)C(=O)N[C@@H](C(C)C)C(=O)O[C@@H]1C [formula X] (Isovaleryl-QTL[dP]FYV; ester 2-C)					IC50 [1, 7]: 200 nM; IC50 [3, 8]: 20 nM
